Measured values reported in patent publication US20090054333A1, “Peptide inhibitors of cyclin-dependent kinase activity and uses thereof” (priority 2006, published 2009).
Each block holds one molecule with its values, some of them ahead of it. No end group written: not given here.

Target: cdk2
Assay: in vitro cdk2 kinase assay with GST-fusion proteins, histone H1 substrate
Assay type: biochemical
Design: key to Kinase assay (inhibitory effect on cdk2 activity): P=positive; N=negative
Conditions: for Kinase assay (inhibitory effect on cdk2 activity): 0.1 μg GST-fusion protein, cdk2 immunoprecipitated from NIH/3T3; for inhibitory effect on cdk2 activity / histone H1 phosphorylation in vitro: GST-fusion protein added to cdk2 immunoprecipitate from NIH/3T3
Description: Constructs preparation: A prokaryotic expression vector pGEX-2T (Stratagene Inc., La Jolla Calif.) and polymerase chain reaction (PCR) were used to generate chimeric Glutathione-S-Transferase constructs. The primers used by PCR to amplify the fragments that were subcloned in the pGEX-2T were derived from the 5′ and 3′ ends of different regions of the spacer domain of […]. The mammalian expression vector pEF6/V5-His TOPO (Invitrogen Corp, Carlsbad, Calif.) was used to generate the constructs pEF6/V5-His-spacer and pEF6/V5-His-310 that express the correspondent genes with a C-terminal V5 epitope. The spacer and the 310 fragments were PCR-amplified with the respective primers (Table 1) to generate 3′ends of the cDNAs without stop codons and were subsequently subcloned into pEF6/V5-His TOPO (Invitrogen Corp, Carlsbad, Calif.) according to the manufacturer's instructions to obtain cDNAs coding for C-terminal fusion proteins. All generated constructs were confirmed by automated sequencing. Information regarding the primers is available upon request.
GST Fusion protein preparation: XL1-Blue bacteria carrying the pGEX-2T vectors were grown to mid log phase and then induced to express protein by adding 0.25 mM of isopropyl-1-thio-β-D-galactopyranoside (IPTG, Roche Applied Science, Indianapolis, Ind.). The cultures were shaken for 4 h; bacteria were then pelleted and resuspended in NENT buffer (20 mM Tris pH 8, 100 mM NaCl, 1 mM EDTA, 0.5% NP-40). Cell suspensions were sonicated, pelleted and the supernatant collected. The remaining bacteria were then resuspended in NENT buffer plus 2% of N-Lauryl-Sarcosine, pelleted and the supernatants were collected again. The combined supernatants were incubated with Glutathione agarose (Amersham Biosciences, Piscataway, N.J.) overnight at 4° C. The agarose was then pelleted and washed three times in NENT buffer.
Kinase assays: Cell lysates from NIH/3T3 were prepared by resuspending pelleted cells in 500 μl of lysis buffer (50 mM Tris, 5 mM EDTA, 250 mM NaCl, 50 mM NaF, 0.1% Triton, 0.1 mM Na3VO4, plus protease inhibitors). An equal amount of protein for each fraction (100 μg) was immunoprecipitated with a polyclonal anti-cdk2 antibody (De Luca et al., 1997, J Biol Chem, 272, 20971-4). The complexes were pulled down with protein A-Sepharose and washed three times with lysis buffer and twice with lysis buffer containing 400 mM NaCl. The complexes were equilibrated in kinase assay buffer (20 mM HEPES pH 7.4, 10 mM MgAc, […], 1 mM DTT). In order to detect the in vitro inhibition of cdk2 activity, each sample was incubated with an equal amount (0.1 μg) of each pGEX-2T fusion protein, in a final volume of 20 μl of kinase buffer, using 5 μCi/sample of γ-ATP (Amersham Biosciences, Piscataway, N.J.) and 2 μg of Histone H1 for 30 minutes at 30° C. Kinase assays were repeated at least three times, giving an inter assay standard deviation within 10% after normalization for protein amount. In order to evaluate the in vivo inhibition of cdk2 activity, cdk2 was immunoprecipitated, as described above, from NIH/3T3 cells transiently transfected with 5 μg of pEF6/V5-spacer, pEF6/V5-Spa310 or the vector alone as a control. The immunocomplexes were split in two tubes. A half of each sample was assayed for cdk2 activity in a final volume of 20 μl of kinase buffer with 5 μCi/sample of γ-ATP and 2 μg of Histone H1 for 30 min. at 30° C.; the second one was tested in western blot analysis to confirm that all the samples contained the amount of cdk2 immunoprecipitated. Briefly the samples were separated into 12% SDS polyacrylamide gels (SDS-PAGE), and then transferred into a nitrocellulose membrane (Schleicher & Schuell, Germany). The membrane was blocked with 5% non-fat dry milk in 1×TBST and incubated with the polyclonal anti-cdk2 antibody described above. […]

Kinase assay (inhibitory effect on cdk2 activity): N
inhibitory effect on cdk2 activity / histone H1 phosphorylation in vitro: little or no inhibitory effect
Molecule: Spa1: pRb2/p130 spacer fragment, amino acids 616-642, 27 amino acids (VPTCEEVMPPQNLERADEICIAGSPLT; cysteine pairing not given here; also: fused to dimerising Fc or GST)

Kinase assay (inhibitory effect on cdk2 activity): N
inhibitory effect on cdk2 activity / histone H1 phosphorylation in vitro: little or no inhibitory effect
Molecule: Spa2: pRb2/p130 spacer fragment, amino acids 641-666, 26 amino acids (LTPRRVTEVRADTGGLGRSITSPTTL; UniProt Q08999 641-666, looked up, fragment)

Kinase assay (inhibitory effect on cdk2 activity): N
inhibitory effect on cdk2 activity / histone H1 phosphorylation in vitro: little or no inhibitory effect
Molecule: Spa3: pRb2/p130 spacer fragment, amino acids 663-711, 49 amino acids (PTTLYDRYSSPPASTTRRRLFVENDSPSDGGTPGRMPPQPLVNAVPVQN; also: fused to dimerising Fc or GST)

Kinase assay (inhibitory effect on cdk2 activity): N
Molecule: Spa12: pRb2/p130 spacer fragment, amino acids 616-666, 51 amino acids (VPTCEEVMPPQNLERADEICIAGSPLTPRRVTEVRADTGGLGRSITSPTTL; cysteine pairing not given here; also: fused to dimerising Fc or GST)

Kinase assay (inhibitory effect on cdk2 activity): N
Molecule: Spa72: Table 1 construct: pRb2/p130 spacer fragment, amino acids 652-711, 60 amino acids (DTGGLGRSITSPTTLYDRYSSPPASTTRRRLFVENDSPSDGGTPGRMPPQPLVNAVPVQN; also: fused to dimerising Fc or GST)

Kinase assay (inhibitory effect on cdk2 activity): P
Molecule: Spa311: pRb2/p130 amino acids 641 to 682 (42 amino acids long), SEQ ID NO:2 (LTPRRVTEVRADTGGLGRSITSPTTLYDRYSSPPASTTRRRL; listed as Homo sapiens)

Kinase assay (inhibitory effect on cdk2 activity): N
Molecule: Spa312: pRb2/p130 spacer fragment, amino acids 641-673, 33 amino acids (LTPRRVTEVRADTGGLGRSITSPTTLYDRYSSP; also: fused to dimerising Fc or GST)

Kinase assay (inhibitory effect on cdk2 activity): N
Molecule: Spb: pRb2/p130 spacer fragment, amino acids 712-754, 43 amino acids (VSGETVSVTPVPGQTLVTMATATVTANNGQTVTIPVQGIANEN; also: fused to dimerising Fc or GST)

Kinase assay (inhibitory effect on cdk2 activity): P
B1: Spa: pRb2/p130 spacer fragment, amino acids 616-711, 96 amino acids (protein)
chain: VPTCEEVMPPQNLERADEICIAGSPLTPRRVTEVRADTGGLGRSITSPTTLYDRYSSPPASTTRRRLFVENDSPSDGGTPGRMPPQPLVNAVPVQN
modifications: left off: a dimerising Fc or GST
inhibitory effect on cdk2 activity / histone H1 phosphorylation in vitro: inhibitory effect on histone H1 phosphorylation

Kinase assay (inhibitory effect on cdk2 activity): P
inhibitory effect on cdk2 activity / histone H1 phosphorylation in vitro: able to inhibit cdk2 activity
B2: Spa23: Table 1 construct: pRb2/p130 spacer fragment, amino acids 641-711, 71 amino acids (protein)
chain: LTPRRVTEVRADTGGLGRSITSPTTLYDRYSSPPASTTRRRLFVENDSPSDGGTPGRMPPQPLVNAVPVQN
modifications: left off: a dimerising Fc or GST

Kinase assay (inhibitory effect on cdk2 activity): P
B3: Spa38: pRb2/p130 amino acids 641 to 702 (62 amino acids long), SEQ ID NO:1 (protein, listed as Homo sapiens)
chain: LTPRRVTEVRADTGGLGRSITSPTTLYDRYSSPPASTTRRRLFVENDSPSDGGTPGRMPPQP

Kinase assay (inhibitory effect on cdk2 activity): N
B4: Spc: pRb2/p130 spacer fragment, amino acids 755-828, 73 amino acids (protein)
chain: GGITFFPVQVNVGGQAQAVTGSIQPLSAQALAGSLSSQQVTGTTLQVPGQVAIQQISPGGQQQKQGQSVTSSSN
modifications: left off: a dimerising Fc or GST
notes: pRb2/p130 spacer fragment, amino acids 755-828, 73 amino acids
